# Tests used:
# mHTT = assay: Mutant and total HTT multiplex HTRF assay in Q48 HTT human embryonic stem cell line: mHTT; assay type: cell-based; details: Q48 HTT hESC, 48 hours
# Outline: (§1)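 Q48 HTT hESCs from HD donors were treated with compound for 48 h at 37 °C after 24 h adherence, then lysed. Lysates were read by multiplex HTRF with N-terminal donor, polyQ (MW1) and post-polyQ (MAB2166) antibodies for 4-6 h at RT. Donor/acceptor ratios give relative mHTT and tHTT; pIC50 reported.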
# tHTT = assay: Mutant and total HTT multiplex HTRF assay in Q48 HTT human embryonic stem cell line: tHTT; assay type: cell-based; details: Q48 HTT hESC, 48 hours
# Outline: as §1
smiles,measurement,setting,value
"Oc1cc2ccccc2cc1-c1ccc(CC2CCNCC2)nn1 [Compound 82, 3-(6-(piperidin-4-ylmethyl)pyridazin-3-yl)naphthalen-2-ol]",mHTT pIC50,mHTT,<5
same,tHTT pIC50,tHTT,<5
